One series deals with Mesenteric arteries. The series can be described thus: Microvascular dilation of perfused mesenteric resistance arteries (pressure myograph). Further details: species or system mouse. The protocol: Mesenteric arteries were removed from terminally anesthetized mice and placed them in ice-cold physiological salt solution (PSS). 4-6 arterial segments from each mouse were used. A segment of mesenteric artery was cannulated and mounted in a video-monitored perfusion system as described (21). Arterial segments were bathed in a 5 ml organ bath containing a PSS maintained at pH 7.4, with pO2 and pCO2 of 160 mm Hg and 37 mm Hg, respectively. Arterial diameter was continuously recorded by video (Living System Instrumentation Inc., Burlington, Vt.). Pressure and flow rates could be changed independently. Diameter changes were measured in each segment when the intraluminal pressure was set at 75 mm Hg in order to measure dilation. Artery viability was tested with potassium-rich solution ([…]; PSS). The endothelium was considered functional when 80% relaxation was obtained with 10^−6 acetylcholine (ACH), after phenylephrine (PE)-induced preconstriction (50% of maximal contraction with KCl 80 mM). A cumulative concentration-response curve to ACH (10^−7-10^−4 M) was constructed after preconstriction. Sodium nitroprusside (SNP, 100 μM) was tested after the ACH curve. Intraluminal flow was then increased to 21 μl/minute and MP were injected in the vessel. A new cumulative concentration-response curve to ACH after was constructed after new PE-induced preconstriction. […]

A further series relates to SCD patients. The note with it: long term treatment; cited from earlier work.
Series [1] concerns wild type mice. The series can be described thus: Vaso-occlusive crises in mice: renal artery blood flow velocity by Echo-Doppler (wild type). Format: in vivo, mouse. As for the experimental part: (§1) We characterized the induction of VOC in SAD transgenic mice (18, 19) according to our previously published method, in response to the intravenous administration of TSP1 (1 mg/kg), TSP1-derived peptides 4N1-1 or 4N1-2, or purified erythrocyte MP. Briefly, mice were anesthetized with isoflurane and monitored to prevent any cardiorespiratory depression. Mice were shaved and placed in the decubitus position on a heating blanket (38° C.). We used a Vivid 7 echograph (GE Medical Systems®, Horten, Norway) equipped with a 12-MHz linear transducer (12 L). The ultrasound probe was placed on the left side of the abdomen for examination of renal arteries, or in left lateral decubitus for cardiac output acquisition with transducer on the chest. Data were transferred on-line to an EchoPAC ultrasound image analysis workstation (GE Medical Systems®). Two-Dimensional ultrasound imaging of the abdomen in left-sided longitudinal B-mode allowed kidney width and height measurements. […] A pulsed Doppler spectrum was recorded and peak systolic, end-diastolic and time-average mean BFV were measured in the renal artery, with Doppler beam angle correction. To calculate cardiac output, spatial flow profiles were analyzed in parasternal long-axis B-mode images of the pulmonary artery and BFV were measured as above. […] Circulating MP were quantified by FACS.

Series [2] has as its system wild type mouse erythrocytes. The series can be described thus: Echinocyte conversion and MP shedding by isolated erythrocytes (LORCA ektacytometer, microscopy, FACS), wild type. Format: cell-based. As to conditions: under shear, TSP1 (25 μg/ml), within minutes. As for the experimental part: (§2) Mouse blood was obtained through retro-orbital sinus puncture, mixed with anti-coagulant heparin buffer (5 UI/ml), and collected on citrated tubes. Blood diluted 1:1 with PBS (Gibco-Life Sciences) was placed onto histopaque-1083 (Sigma) density gradients for centrifugation (600 g, 25 minutes). Erythrocyte pellets were resuspended, washed in DMEM and stored for up to 4 hours at room temperature. Erythrocyte surface CD47 expression was assessed by FACS. Fresh RBC were washed and blocked with PBS-BSA 5% for 30 min and immunoreacted with mouse-specific fluoroisothiocyanate (FITC)-coupled anti-CD47 monoclonal antibody (clone mIAP301; BD Biosciences, Le Pont de Claix, France), or matched irrelevant IgG2aκ isotype for 45 min in 2% PBS-BSA. Erythrocytes were washed in PBS-BSA 2% prior to FACS analysis. Erythrocyte phenotypes were analyzed by […] electronic microscopy. Briefly, mouse erythrocytes were fixed with glutaraldehyde 1% and paraformaldehyde 4%, dehydrated and embedded in Epon™ epoxy resin. Sections contrasted with uranyl acetate and lead citrate were examined with a JEOL JEM 1010 microscope. Average apparent spicule number was determined by direct counting in 80 to 120 cells per condition.
(§3) To trigger MP shedding, erythrocyte were suspended in polyvinylpyrrolidone (31 mPa.s) and placed in a rotating type LORCA ektacytometer (R&R Mechatronics, Hoorn, The
(§4) Netherlands) in the absence or presence of TSP1 (25 μg/ml), or TSP1-derived peptides 4N1-1 or 4N1-2 (25 μM). Shear rate was applied according to the builder's program (1500 s^−1; 2.5 minutes). Erythrocytes were immediately separated and supernatant PS^+ MP quantified by FACS. Concentrated MP stocks were generated from 10 to 20 ml of supernatant from erythrocytes suspended in RPMI-1640 (4.10^6/ml) and treated with 4N1-1. Suspensions were centrifuged at 400 g for 15 min to discard cells, and ultracentrifuged at 20500 g for 45 min to pellet MP, which were resuspended in filtered (0.2 μm) DMEM and stored at −80° C. MP concentrations were determined as previously described (20). Briefly, MP were labeled with 2 μl FITC-conjugated annexin-V (Roche Diagnostics, France) diluted in 100 μl reaction buffer with 5 mM CaCl2. CaCl2 was omitted in negative controls. MP were analyzed on a Coulter EPICS XL flow cytometer (Beckman Coulter). MP were identified in forward light scatter (FSc) and side-angle light scatter (SSc) intensity dot plots set at logarithmic gain, as events of 0.1-1 μm in diameter. MP-size events were analyzed in FL/FSC fluorescence dot plots to determine annexin-V labeling. MP concentration was determined with respect to calibrated fluorescent microbeads (Flowcount). To determine erythrocyte origin, MP were double labeled with rat PE-Cy7-coupled mouse-specific anti-Ter119 antibody (Biolegend via Ozyme, France), or matched irrelevant IgG2bκ isotype.

The test system of a further series is SAD transgenic mice. The series can be described thus: Vaso-occlusive crises in mice: renal artery blood flow velocity by Echo-Doppler, cardiac output, renal histology. The note with it: for reduction in the mean blood flow velocity of the right renal arteries: TSP1 1 mg/kg intravenous. It is filed as in vivo, mouse. As for the experimental part: We characterized the induction of VOC in SAD transgenic mice (18, 19) according to our previously published method, in response to the intravenous administration of TSP1 (1 mg/kg), TSP1-derived peptides 4N1-1 or 4N1-2, or purified erythrocyte MP. Briefly, mice were anesthetized with isoflurane and monitored to prevent any cardiorespiratory depression. Mice were shaved and placed in the decubitus position on a heating blanket (38° C.). We used a Vivid 7 echograph (GE Medical Systems®, Horten, Norway) equipped with a 12-MHz linear transducer (12 L). The ultrasound probe was placed on the left side of the abdomen for examination of renal arteries, or in left lateral decubitus for cardiac output acquisition with transducer on the chest. Data were transferred on-line to an EchoPAC ultrasound image analysis workstation (GE Medical Systems®). Two-Dimensional ultrasound imaging of the abdomen in left-sided longitudinal B-mode allowed kidney width and height measurements. Color-coded blood flow detection by Doppler enabled renal arteries to be localized. A pulsed Doppler spectrum was recorded and peak systolic, end-diastolic and time-average mean BFV were measured in the renal artery, with Doppler beam angle correction. To calculate cardiac output, spatial flow profiles were analyzed in parasternal long-axis B-mode images of the pulmonary artery and BFV were measured as above. The following formula was applied: CO=[(V^mean·60)·(π·(Dpa/2^2)], where CO is the cardiac output in ml/minute, V^mean is the mean time-averaged BFV in cm/s and Dpa is the pulmonary artery diameter in cm. Kidney sizes and BFV were determined by the same investigator, as means of 5 to 8 measurements. Repeatability for cardiac output measurements was verified. We controlled and confirmed that kidney size was similar between SAD and wild type mice. After sacrifice, kidneys were dissected, dehydrated, mounted in paraffin, sectioned and stained by Masson trichrome. Vascular congestion was observed by phase-contrast microscopy, as large erythrocyte aggregates occluding kidney capillaries and larger vessels. In some experiments, TSP1 (1 mg/kg) or control BSA (1 mg/kg) were injected. After 5 minutes, mice were terminally anesthetized by pentobarbital overdose. Whole blood was collected through cardiac puncture, centrifuged (400 g, 15 minutes) to eliminate erythrocytes and leukocytes, and double centrifuged (12500 g, 5 minutes) to eliminate platelets with minimal activation. Supernatants were considered platelet-free plasma (PFP). Circulating MP were quantified by FACS.
We evaluated the concept that TSP1 influences VOC during SCD in vivo. We used SAD transgenic mice that express a mutated human hemoglobin β-chain known to cause sickle cell formation and sensitivity to VOC (18, 19).

Series [3] concerns wild type mice. The series can be described thus: Circulating PS+ MP in platelet-free plasma by FACS (annexin-V labeling), wild type mice. It is filed as in vivo, mouse. The note with it: TSP1 injection (1 mg/kg), within 5 minutes, vs control. The protocol:
as §1, with “L).” for “L). The ultrasound probe was placed on the left side of the abdomen for examination of renal arteries, or in left lateral decubitus for cardiac output acquisition with transducer on the chest. Data were transferred on-line to an EchoPAC ultrasound image analysis workstation (GE Medical Systems®). Two-Dimensional ultrasound imaging of the abdomen in left-sided longitudinal B-mode allowed kidney width and height measurements.”
(§5) Netherlands) in the absence or presence of TSP1 (25 μg/ml), or TSP1-derived peptides 4N1-1 or 4N1-2 (25 μM). […] Erythrocytes were immediately separated and supernatant PS^+ MP quantified by FACS. […] MP concentrations were determined as previously described (20). […] MP were analyzed on a Coulter EPICS XL flow cytometer (Beckman Coulter). […] MP-size events were analyzed in FL/FSC fluorescence dot plots to determine annexin-V labeling. […]

For another series, the system named is SAD mouse erythrocytes. The series can be described thus: Echinocyte conversion and MP shedding by isolated erythrocytes (LORCA ektacytometer, microscopy, FACS), SAD. Format: cell-based. The protocol: as §2, §3, §4
The test system of the next series is SAD mice. The series can be described thus: Circulating PS+ MP in platelet-free plasma by FACS (annexin-V labeling), SAD mice. As to conditions: SAD mice, TSP1 injection (1 mg/kg), within 5 minutes, vs control SAD. It is filed as in vivo, mouse. As for the experimental part: as §1, with “L).” for “L). The ultrasound probe was placed on the left side of the abdomen for examination of renal arteries, or in left lateral decubitus for cardiac output acquisition with transducer on the chest. Data were transferred on-line to an EchoPAC ultrasound image analysis workstation (GE Medical Systems®). Two-Dimensional ultrasound imaging of the abdomen in left-sided longitudinal B-mode allowed kidney width and height measurements.”
as §5
(In general: A flow cytometer gives signals particle by particle.)

[4] abbreviates: after intravenous injection (TSP1 1 mg/kg; MP 300.10^3 MP/mouse).
The mark [5] stands for this setting: TSP1 and shear stress, vs control (discussion).

With `CC1(C)CC(O)CC(C)(C)N1[O]` [Tempol], the “effect alone on vessel diameter” value in the series on Mesenteric arteries (Tempol alone, vs control) is −5 % vessel diameter. The “reduction of the deleterious effects of SAD RBC MP on vasodilation” value with Mesenteric arteries (vessel treated 10 μM, 30 minutes, vs MP alone) is listed as −50%.
Regarding `NC(=O)NO` [hydroxy-urea], in the series with SCD patients, the long term safety entry is “presumptions of carcinogenesis in the long term” and the “proportion of SCD patients in whom treatment is effective” value is given as “about 40%”.
Consider “TSP1: Human recombinant TSP1 produced by EMP-Genetech (Germany)”, for which, in the series with wild type mice [1] (TSP1 1 mg/kg intravenous), the “systolic, diastolic and mean blood flow velocities” value was “remained unchanged”. For the same compound, the renal perfusion entry in the series on wild type mice [1] (TSP1 injection) is “did not modify renal perfusion”. Also, in series [2], the “proportion of wild type echinocytes reached” value is 30% and the “raise in the proportion of wild type echinocytes” value was “over 10 fold”. In addition, the “reduction in the mean blood flow velocity of the right renal arteries” value in the series with SAD transgenic mice (after 5 minutes) was 35%. Further, the “reduction in the mean blood flow velocity of the right renal arteries” value with SAD transgenic mice (rapid) was determined as 20%. Moreover, the “drop in renal perfusion” value with SAD transgenic mice (TSP1 injection, within minutes) is 30%. Also, in the series on SAD transgenic mice (setting [4]), the “diastolic and mean blood flow velocities” value is reported as “dramatically decreased”; the “renal histology after Masson trichrome stain” value was “red blood cells aggregates and vascular congestion”; the “systolic blood flow velocity” value is recorded as “unchanged”. In the series on wild type mice [3], the “raise in plasma PS+ MP” value turned out to be 3 fold. Besides, in the series on SAD mouse erythrocytes (SAD erythrocytes, TSP1 or peptide), the “effect on sickle cells” value is “did not affect sickle cells”. Moreover, in the series on SAD mouse erythrocytes (setting [5]), the “MP shedding by SAD erythrocytes” value is “doubled” and the “proportion of SAD echinocytes” value is given as “doubled”. Further, the “increase in SAD echinocytes” value with SAD mouse erythrocytes (under shear, TSP1 (25 μg/ml) or peptide (25 μM), vs control) is listed as 50%. For the same compound, the “increase in circulating PS+ MP” value in the series with SAD mice is on record as 3 fold.

The values above are taken from patent US10139420B2, “Methods for treating vaso-occlusive crisis using non-modified annexin V” (ISNERM (Institut National de la Sante et de la Recherche …, priority 2011, dated 2018).
